Patent US8129417B2, “Substituted octahydrocyclopenta[C]pyrrol-4-amines as calcium channel blockers” (Abbott Laboratories, priority 2008, dated 2012)

These molecules were tested against human Cav2.2 (Homo sapiens, UniProt Q00975) (assay: Assessment of calcium channel activity using FLIPR (Ca2+ influx in IMR32 cells)). Conditions: 3 minute pre-incubation with compound (*), 2 μM nifedipine, depolarized with 80 mM KCl.
Type: cell-based
Method in brief: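 IMR32 neuroblastoma cells seeded at 1-1.2×10^5 cells/well and grown 48 h at 37 °C before FLIPR Ca2+ influx read. Percent inhibition at each concentration vs no-inhibitor activity; IC50 by non-linear sigmoidal dose-response fit.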

Chain of human Cav2.2 (Q00975 whole entry): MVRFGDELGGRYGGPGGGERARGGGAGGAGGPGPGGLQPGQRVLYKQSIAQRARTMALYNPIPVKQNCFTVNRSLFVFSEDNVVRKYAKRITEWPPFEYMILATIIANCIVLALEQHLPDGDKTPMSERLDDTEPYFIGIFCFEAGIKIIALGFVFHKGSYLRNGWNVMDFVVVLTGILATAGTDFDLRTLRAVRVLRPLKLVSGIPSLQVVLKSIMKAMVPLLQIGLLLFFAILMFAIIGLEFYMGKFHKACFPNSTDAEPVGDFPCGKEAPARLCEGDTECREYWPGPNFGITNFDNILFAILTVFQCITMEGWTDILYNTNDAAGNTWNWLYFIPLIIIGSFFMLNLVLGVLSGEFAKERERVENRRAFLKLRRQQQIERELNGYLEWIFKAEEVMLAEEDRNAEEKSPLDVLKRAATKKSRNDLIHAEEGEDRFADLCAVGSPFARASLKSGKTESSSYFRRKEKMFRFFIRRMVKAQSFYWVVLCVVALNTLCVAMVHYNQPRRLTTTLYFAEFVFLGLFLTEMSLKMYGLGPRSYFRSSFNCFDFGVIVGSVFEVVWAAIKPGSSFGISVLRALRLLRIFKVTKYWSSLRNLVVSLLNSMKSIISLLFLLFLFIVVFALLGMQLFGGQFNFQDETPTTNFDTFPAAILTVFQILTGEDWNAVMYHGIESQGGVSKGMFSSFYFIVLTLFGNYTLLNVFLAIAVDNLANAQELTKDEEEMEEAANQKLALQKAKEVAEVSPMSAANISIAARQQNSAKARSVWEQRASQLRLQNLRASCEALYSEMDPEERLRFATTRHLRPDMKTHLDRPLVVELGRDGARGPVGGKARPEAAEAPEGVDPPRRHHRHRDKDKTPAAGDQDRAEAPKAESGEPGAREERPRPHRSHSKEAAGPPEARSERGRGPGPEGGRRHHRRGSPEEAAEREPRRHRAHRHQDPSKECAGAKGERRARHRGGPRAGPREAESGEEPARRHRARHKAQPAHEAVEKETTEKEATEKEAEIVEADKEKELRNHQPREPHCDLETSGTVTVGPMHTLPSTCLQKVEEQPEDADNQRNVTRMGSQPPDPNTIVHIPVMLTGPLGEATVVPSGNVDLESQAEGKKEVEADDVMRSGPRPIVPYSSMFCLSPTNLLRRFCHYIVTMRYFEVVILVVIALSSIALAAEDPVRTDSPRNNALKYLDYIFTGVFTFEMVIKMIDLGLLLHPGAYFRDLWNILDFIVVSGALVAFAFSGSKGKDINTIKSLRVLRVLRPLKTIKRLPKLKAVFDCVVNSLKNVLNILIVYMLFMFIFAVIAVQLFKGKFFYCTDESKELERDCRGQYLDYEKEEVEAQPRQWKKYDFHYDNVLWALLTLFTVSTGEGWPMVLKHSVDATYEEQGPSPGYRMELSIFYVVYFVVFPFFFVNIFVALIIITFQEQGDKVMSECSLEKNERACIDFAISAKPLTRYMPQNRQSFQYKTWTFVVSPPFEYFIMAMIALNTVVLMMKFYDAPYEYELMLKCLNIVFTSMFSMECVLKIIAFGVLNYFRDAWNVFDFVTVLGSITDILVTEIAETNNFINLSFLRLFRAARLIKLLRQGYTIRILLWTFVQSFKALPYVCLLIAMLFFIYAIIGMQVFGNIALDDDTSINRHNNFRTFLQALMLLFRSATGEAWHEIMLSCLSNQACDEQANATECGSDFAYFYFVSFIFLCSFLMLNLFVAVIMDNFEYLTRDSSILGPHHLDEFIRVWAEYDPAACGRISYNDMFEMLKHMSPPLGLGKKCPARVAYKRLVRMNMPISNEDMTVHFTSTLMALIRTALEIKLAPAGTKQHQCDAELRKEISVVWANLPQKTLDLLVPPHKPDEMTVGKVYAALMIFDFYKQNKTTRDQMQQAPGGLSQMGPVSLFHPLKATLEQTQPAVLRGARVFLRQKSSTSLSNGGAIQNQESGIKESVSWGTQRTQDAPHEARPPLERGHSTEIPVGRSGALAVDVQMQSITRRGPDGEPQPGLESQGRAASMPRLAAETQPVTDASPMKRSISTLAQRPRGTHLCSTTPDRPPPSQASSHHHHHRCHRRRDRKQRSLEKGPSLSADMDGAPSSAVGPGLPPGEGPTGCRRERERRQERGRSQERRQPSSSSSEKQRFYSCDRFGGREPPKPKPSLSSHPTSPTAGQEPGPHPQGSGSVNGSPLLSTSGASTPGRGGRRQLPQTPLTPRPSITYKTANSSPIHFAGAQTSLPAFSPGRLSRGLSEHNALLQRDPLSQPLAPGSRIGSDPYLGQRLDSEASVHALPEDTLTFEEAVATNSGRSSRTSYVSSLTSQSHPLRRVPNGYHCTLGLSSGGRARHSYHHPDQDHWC
Chain of human Cav2.2 (P54289 25-946 partner limits assumed): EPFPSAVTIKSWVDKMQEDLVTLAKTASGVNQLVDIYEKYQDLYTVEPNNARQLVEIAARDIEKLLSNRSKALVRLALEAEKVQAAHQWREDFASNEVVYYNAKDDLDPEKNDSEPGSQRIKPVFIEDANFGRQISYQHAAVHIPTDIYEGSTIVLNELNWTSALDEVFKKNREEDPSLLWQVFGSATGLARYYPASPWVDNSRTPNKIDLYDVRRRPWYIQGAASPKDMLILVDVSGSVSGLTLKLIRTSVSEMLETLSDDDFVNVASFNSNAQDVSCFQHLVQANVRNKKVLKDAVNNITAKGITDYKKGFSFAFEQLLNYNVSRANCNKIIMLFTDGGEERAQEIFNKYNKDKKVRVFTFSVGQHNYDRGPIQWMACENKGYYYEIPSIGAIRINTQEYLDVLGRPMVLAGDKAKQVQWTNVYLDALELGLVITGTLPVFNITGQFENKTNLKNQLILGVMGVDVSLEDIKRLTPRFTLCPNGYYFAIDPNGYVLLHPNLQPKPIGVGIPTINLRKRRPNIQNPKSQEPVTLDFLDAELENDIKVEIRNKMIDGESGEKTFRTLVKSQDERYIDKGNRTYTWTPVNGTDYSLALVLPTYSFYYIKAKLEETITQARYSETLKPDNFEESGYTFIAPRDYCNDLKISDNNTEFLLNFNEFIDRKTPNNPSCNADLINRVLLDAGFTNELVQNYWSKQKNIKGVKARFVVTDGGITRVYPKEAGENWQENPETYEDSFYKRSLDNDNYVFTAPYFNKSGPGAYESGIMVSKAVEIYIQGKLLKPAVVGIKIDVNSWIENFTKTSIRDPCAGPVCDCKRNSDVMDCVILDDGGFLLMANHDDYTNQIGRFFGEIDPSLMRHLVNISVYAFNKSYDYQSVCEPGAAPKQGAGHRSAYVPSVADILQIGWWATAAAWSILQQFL
Chain of human Cav2.2 (P54289 947-1103 partner limits assumed): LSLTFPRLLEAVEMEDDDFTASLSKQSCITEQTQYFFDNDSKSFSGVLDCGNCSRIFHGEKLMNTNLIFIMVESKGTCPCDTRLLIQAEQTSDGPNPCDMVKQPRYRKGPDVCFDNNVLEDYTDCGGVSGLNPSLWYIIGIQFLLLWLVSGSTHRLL
Chain of human Cav2.2 (P54284 whole entry partner): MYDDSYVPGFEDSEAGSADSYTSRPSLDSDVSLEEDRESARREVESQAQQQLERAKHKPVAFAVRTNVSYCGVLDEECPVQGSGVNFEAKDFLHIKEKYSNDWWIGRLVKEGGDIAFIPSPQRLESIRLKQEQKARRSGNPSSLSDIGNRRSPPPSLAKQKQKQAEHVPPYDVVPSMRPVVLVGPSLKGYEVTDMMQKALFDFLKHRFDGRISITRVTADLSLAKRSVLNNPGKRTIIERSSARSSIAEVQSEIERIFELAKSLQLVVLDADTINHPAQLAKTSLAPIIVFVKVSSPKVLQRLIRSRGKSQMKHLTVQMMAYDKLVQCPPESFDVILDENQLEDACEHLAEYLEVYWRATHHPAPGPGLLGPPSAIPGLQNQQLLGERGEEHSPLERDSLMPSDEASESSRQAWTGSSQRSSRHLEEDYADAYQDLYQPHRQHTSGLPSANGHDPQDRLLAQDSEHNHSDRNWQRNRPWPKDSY

Molecule | IC50 [µM]
N-[(3aS*,4R*,6aR*)-2-benzyloctahydrocyclopenta[c]pyrrol-4-yl]-2-cyclohexyl-2-phenylacetamide [Example 4] | 3.5

Same assay, conditions: 60 minute pre-incubation with compound, 2 μM nifedipine, depolarized with 80 mM KCl

Molecule | IC50 [µM]
CC(C)(C)C[C@H](NS(C)(=O)=O)C(=O)N[C@H]1CC[C@@H]2CN(Cc3ccc(C(F)(F)F)cc3)C[C@@H]21 [Example 519, 4-methyl-N^2-(methylsulfonyl)-N^1-{(3aR,4S,6aS)-2-[4-(trifluoromethyl)benzyl]octahydrocyclopenta[c]pyrrol-4-yl}-L-leucinamide] | 5.14
CCC[C@H](NS(C)(=O)=O)C(=O)N[C@H]1CC[C@@H]2CN(Cc3ccc(C(F)(F)F)cc3)C[C@@H]21 [Example 521, N^2-(methylsulfonyl)-N^1-{(3aR,4S,6aS)-2-[4-(trifluoromethyl)benzyl]octahydrocyclopenta[c]pyrrol-4-yl}-L-norvalinamide] | 9.6
CC(C)C[C@H](NS(=O)(=O)C(C)C)C(=O)N[C@@H]1CC[C@H]2CN(Cc3cccc(C(F)(F)F)c3)C[C@H]21 [Example 522, N^2-(isopropylsulfonyl)-N^1-{(3aS,4R,6aR)-2-[3-(trifluoromethyl)benzyl]octahydrocyclopenta[c]pyrrol-4-yl}-L-leucinamide] | 2.9
CC(C)C[C@H](NS(=O)(=O)C1CCCC1)C(=O)N[C@@H]1CC[C@H]2CN(Cc3cccc(C(F)(F)F)c3)C[C@H]21 [Example 524, N^2-(cyclopentylsulfonyl)-N^1-{(3aS,4R,6aR)-2-[3-(trifluoromethyl)benzyl]octahydrocyclopenta[c]pyrrol-4-yl}-L-leucinamide] | 2.07
CC(C)OC(=O)N[C@@H](CC(C)(C)C)C(=O)N[C@H]1CC[C@@H]2CN(Cc3ccc(C(F)(F)F)cc3)C[C@@H]21 [Example 525, Isopropyl (S)-4,4-dimethyl-1-oxo-1-((3aR,4S,6aS)-2-(4-(trifluoromethyl)benzyl)octahydrocyclopenta[c]pyrrol-4-ylamino)pentan-2-ylcarbamate] | 1.39
CC(C)OC(=O)N[C@H](C(=O)N[C@H]1CC[C@@H]2CN(Cc3ccc(C(F)(F)F)cc3)C[C@@H]21)C(C)(C)C [Example 526, Isopropyl (S)-3,3-dimethyl-1-oxo-1-((3aR,4S,6aS)-2-(4-(trifluoromethyl)benzyl)octahydrocyclopenta[c]pyrrol-4-ylamino)butan-2-ylcarbamate] | 2.77
CCC[C@H](NC(=O)OC1CCCC1)C(=O)N[C@H]1CC[C@@H]2CN(Cc3ccc(C(F)(F)F)cc3)C[C@@H]21 [Example 527, Cyclopentyl (S)-1-oxo-1-((3aR,4S,6aS)-2-(4-(trifluoromethyl)benzyl)octahydrocyclopenta[c]pyrrol-4-ylamino)pentan-2-ylcarbamate] | 2.29
CCC[C@H](NC(=O)C(C)(C)C)C(=O)N[C@H]1CC[C@@H]2CN(Cc3ccc(C(F)(F)F)cc3)C[C@@H]21 [Example 528, N^2-(2,2-dimethylpropanoyl)-N^1-{(3aR,4S,6aS)-2-[4-(trifluoromethyl)benzyl]octahydrocyclopenta[c]pyrrol-4-yl}-L-norvalinamide] | 7.23
CCC[C@@H](C(=O)N[C@H]1CC[C@@H]2CN(S(=O)(=O)c3ccc(F)c(Cl)c3)C[C@@H]21)N(C)C(=O)OC(C)(C)C [Example 529, Tert-butyl (S)-1-((3aR,4S,6aS)-2-(3-chloro-4-fluorophenylsulfonyl)octahydrocyclopenta[c]pyrrol-4-ylamino)-1-oxopentan-2-yl(methyl)carbamate] | 0.96
CCC[C@@H](C(=O)N[C@H]1CC[C@@H]2CN(S(=O)(=O)c3cccnc3)C[C@@H]21)N(C)C(=O)OC(C)(C)C [Example 530, Tert-butyl methyl((S)-1-oxo-1-((3aR,4S,6aS)-2-(pyridin-3-ylsulfonyl)octahydrocyclopenta[c]pyrrol-4-ylamino)pentan-2-yl)carbamate] | 7.63
CCC[C@H](NC)C(=O)N[C@H]1CC[C@@H]2CN(S(=O)(=O)c3ccc(F)c(Cl)c3)C[C@@H]21 [Example 534, N^1-{(3aR,4S,6aS)-2-[(3-chloro-4-fluorophenyl)sulfonyl]octahydrocyclopenta[c]pyrrol-4-yl}-N^2-methyl-L-norvalinamide] | 6.38
CCC[C@H](NC)C(=O)N[C@H]1CC[C@@H]2CN(S(=O)(=O)c3ccc(F)cc3Cl)C[C@@H]21 [Example 539, N^1-{(3aR,4S,6aS)-2-[(2-chloro-4-fluorophenyl)sulfonyl]octahydrocyclopenta[c]pyrrol-4-yl}-N^2-methyl-L-norvalinamide] | 4.39
CCC[C@H](NC)C(=O)N[C@H]1CC[C@@H]2CN(S(=O)(=O)c3cccc4ccccc34)C[C@@H]21 [Example 540, N^2-methyl-N^1-[(3aR,4S,6aS)-2-(1-naphthylsulfonyl)octahydrocyclopenta[c]pyrrol-4-yl]-L-norvalinamide] | 1.67
CCC[C@H](NC)C(=O)N[C@H]1CC[C@@H]2CN(S(=O)(=O)c3ccc(Br)c(C(F)(F)F)c3)C[C@@H]21 [Example 541, N^1-((3aR,4S,6aS)-2-{[4-bromo-3-(trifluoromethyl)phenyl]sulfonyl}octahydrocyclopenta[c]pyrrol-4-yl)-N^2-methyl-L-norvalinamide] | 2.57
CCC[C@H](NC)C(=O)N[C@H]1CC[C@@H]2CN(S(=O)(=O)c3ccc(Cl)c(Cl)c3)C[C@@H]21 [Example 542, N^1-{(3aR,4S,6aS)-2-[(3,4-dichlorophenyl)sulfonyl]octahydrocyclopenta[c]pyrrol-4-yl}-N^2-methyl-L-norvalinamide] | 2.36
CCC[C@H](NC)C(=O)N[C@H]1CC[C@@H]2CN(S(=O)(=O)c3ccc(-c4ccccc4)cc3)C[C@@H]21 [Example 544, N^1-[(3aR,4S,6aS)-2-(1,1′-biphenyl-4-ylsulfonyl)octahydrocyclopenta[c]pyrrol-4-yl]-N^2-methyl-L-norvalinamide] | 2.15
CCC[C@H](NC)C(=O)N[C@H]1CC[C@@H]2CN(S(=O)(=O)c3cccc(C#N)c3)C[C@@H]21 [Example 546, N^1-{(3aR,4S,6aS)-2-[(3-cyanophenyl)sulfonyl]octahydrocyclopenta[c]pyrrol-4-yl}-N^2-methyl-L-norvalinamide] | 6.32
N-((3aR,4S,6aS)-2-{[2-chloro-4-(trifluoromethyl)phenyl]sulfonyl}octahydrocyclopenta[c]pyrrol-4-yl)-N-methyl-L-phenylalaninamide [Example 432] | 1.67
N-methyl-N-((3aR,4S,6aS)-2-{[4-(trifluoromethyl)phenyl]sulfonyl}octahydrocyclopenta[c]pyrrol-4-yl)-L-phenylalaninamide [Example 430] | 1.75

Continued, values first:

IC50 [µM] | Molecule
1.05 | CCC[C@H](NC)C(=O)N[C@H]1CC[C@@H]2CN(S(=O)(=O)c3cccc(Cl)c3Cl)C[C@@H]21 [Example 548, N^1-{(3aR,4S,6aS)-2-[(2,3-dichlorophenyl)sulfonyl]octahydrocyclopenta[c]pyrrol-4-yl}-N^2-methyl-L-norvalinamide]
2.57 | CCC[C@H](NC)C(=O)N[C@H]1CC[C@@H]2CN(S(=O)(=O)c3ccccc3C(F)(F)F)C[C@@H]21 [Example 550, N^2-methyl-N^1-((3aR,4S,6aS)-2-{[2-(trifluoromethyl)phenyl]sulfonyl}octahydrocyclopenta[c]pyrrol-4-yl)-L-norvalinamide]
2.49 | CCC[C@H](NC)C(=O)N[C@H]1CC[C@@H]2CN(S(=O)(=O)c3cccc(Br)c3)C[C@@H]21 [Example 551, N^1-{(3aR,4S,6aS)-2-[(3-bromophenyl)sulfonyl]octahydrocyclopenta[c]pyrrol-4-yl}-N^2-methyl-L-norvalinamide]
0.78 | CCC[C@H](NC)C(=O)N[C@H]1CC[C@@H]2CN(S(=O)(=O)c3ccc(C(F)(F)F)cc3Cl)C[C@@H]21 [Example 552, N^1-((3aR,4S,6aS)-2-{[2-chloro-4-(trifluoromethyl)phenyl]sulfonyl}octahydrocyclopenta[c]pyrrol-4-yl)-N^2-methyl-L-norvalinamide]
1.94 | CCC[C@H](NC)C(=O)N[C@H]1CC[C@@H]2CN(S(=O)(=O)c3cc(C(F)(F)F)ccc3Cl)C[C@@H]21 [Example 553, N^1-((3aR,4S,6aS)-2-{[2-chloro-5-(trifluoromethyl)phenyl]sulfonyl}octahydrocyclopenta[c]pyrrol-4-yl)-N^2-methyl-L-norvalinamide]
2.51 | CC(C)N([C@H]1CC[C@@H]2CN(Cc3ccccc3)C[C@@H]21)S(=O)(=O)c1cccc(C(F)(F)F)c1 [Example 555, N-[(3aR,4S,6aS)-2-benzyloctahydrocyclopenta[c]pyrrol-4-yl]-N-isopropyl-3-(trifluoromethyl)benzenesulfonamide]
2.58 | O=S(=O)(N[C@H]1CC[C@@H]2CN(Cc3ccccc3)C[C@@H]21)c1cccc(C(F)(F)F)c1 [Example 556, N-[(3aR,4S,6aS)-2-benzyloctahydrocyclopenta[c]pyrrol-4-yl]-3-(trifluoromethyl)benzenesulfonamide]
1.14 | CN[C@@H](CC(C)C)C(=O)N1C[C@H]2CC[C@H](N(C(C)C)S(=O)(=O)c3cccc(C(F)(F)F)c3)[C@H]2C1 [Example 557, N-isopropyl-N-[(3aR,4S,6aS)-2-(N-methyl-L-leucyl)octahydrocyclopenta[c]pyrrol-4-yl]-3-(trifluoromethyl)benzenesulfonamide]
4.88 | CN[C@@H](CC(C)C)C(=O)N1C[C@H]2CC[C@H](NS(=O)(=O)c3cccc(C(F)(F)F)c3)[C@H]2C1 [Example 558, N-[(3aR,4S,6aS)-2-(N-methyl-L-leucyl)octahydrocyclopenta[c]pyrrol-4-yl]-3-(trifluoromethyl)benzenesulfonamide]
1.68 | CNC(CC(C)C)C(=O)N1CC2CCC(N(C3CC3)S(=O)(=O)c3cccc(C(F)(F)F)c3)C2C1 [Example 559, N-cyclopropyl-N-[(3aS*,4S*,6aR*)-[2-(N-methyl-L-leucyl)octahydrocyclopenta[c]pyrrol-4-yl]-3-(trifluoromethyl)benzenesulfonamide]
